Source: patent publication US6214860A, “Synergistic antitumor composition containing a naphthalensulphonic acid derivative” (Pharmacia & Upjohn S.p.A., priority 1997, dated 2001)
Where two headings read alike, the source gives them in different places.

Tests used:
[1] = days 1, 4, 7 and 11, combination: + PNU 145156E 100 mg/kg ip 2 h prior
Protocol: Mice C57BL/6 were implanted with M5076 murine reticulosarcoma cells. PNU 145156E was administered ip 2 h prior to cytotoxic drugs administered iv starting treatment 24 h after tumor implant. Treatments were performed at days 1, 4, 7 and 11.
The toxicological evaluation was performed in terms of body weight loss and spleen and liver reduction.

[2] = tested on: M5076 murine reticulosarcoma cells; assay: In vivo antitumor activity in mice implanted with M5076 tumor cells; design: species or system Mice C57BL/6; settings: days 1, 4, 7 and 11, combination: + PNU 145156E 100 mg/kg ip 2 h prior; for A.U.C. % inhib. (inhibition of tumor growth): one week after last treatment; for TGD (tumor growth delay): time to reach one gram
Protocol: (§1) The combinations were assayed in vitro on M5076 murine reticulosarcoma cells and in vivo on the same tumor cells implanted intramuscularly.
The antitumor activity was calculated in terms of:
% AUC: inhibition of tumor growth
T/C %: percentage of median increase in survival time
The A.U.C. (area under the curve) of the tumor growth was calculated by using the trapezoidal method, and is referred to the measurement of tumor growth performed one week after the last treatment. The percentage of inhibition (% A.U.C.) was calculated using the following formula: [formula]
The percentage of increase in survival time (T/C% ) was calculated using the following formula: [formula]
Mice were monitored according to guidelines and sacrificed when tumor weight exceeded 10% body weight. Tumor growth delay (TGD) is the time, in days, to reach one gram of tumor weight in treated animals as compared to control animals.
Evaluation of statistical significance was performed as follows: Student's Test for cytotoxic activity, Two-Way Anova for increase in survival time (T/C %) with combined treatment in comparison to the increase exerted separately by the two drugs, Tukey Test for tumor weight reduction (AUC % inhibition) with combined treatment in comparison to the reduction exerted separately by the two drugs.
The criterion for statistical significance was the 0.01 level ( )

[3] = tested on: M5076 murine reticulosarcoma cells; assay: In vitro antiproliferative activity (% cell growth vs untreated control); type: cell-based; settings: for antiproliferative activity in the presence of PNU 145156E: in words, PNU 145156E 50000 ng/ml vs 0 ng/ml
Protocol: as §1

[4] = cytotoxic 40 ng/ml + PNU 145156E 50000 ng/ml, 72 h, 37° C.

CC[C@@]1(O)C(=O)OCc2c1cc1n(c2=O)Cc2cc3c(N)cccc3nc2-1 [9-AC, 9-aminocamptothecin]
Toxic/total mice ([1]; 9AC 2.5 mg/kg iv): 0/10
Toxic/total mice ([1]; 9AC 3 mg/kg iv): 0/10
Toxic/total mice ([1]; 9AC 3.5 mg/kg iv): 1/10
T/C % (median increase in survival time) ([2]; 9AC 2.5 mg/kg iv): 121%
Tumor weight ([2]; 9AC 2.5 mg/kg iv): 2.4 ± 0.9 gr
A.U.C. % inhib. (inhibition of tumor growth) ([2]; 9AC 2.5 mg/kg iv): 45%
TGD (tumor growth delay) ([2]; 9AC 2.5 mg/kg iv): 5 days
T/C % (median increase in survival time) ([2]; 9AC 3 mg/kg iv): 125%
Tumor weight ([2]; 9AC 3 mg/kg iv): 2.13 ± 0.8 gr
A.U.C. % inhib. (inhibition of tumor growth) ([2]; 9AC 3 mg/kg iv): 48%
TGD (tumor growth delay) ([2]; 9AC 3 mg/kg iv): 6 days
T/C % (median increase in survival time) ([2]; 9AC 3.5 mg/kg iv): 128%
Tumor weight ([2]; 9AC 3.5 mg/kg iv): 1.58 ± 0.6 gr
A.U.C. % inhib. (inhibition of tumor growth) ([2]; 9AC 3.5 mg/kg iv): 68%
TGD (tumor growth delay) ([2]; 9AC 3.5 mg/kg iv): 8 days
activity at 0.0025 µg/mL ([3]; Mus musculus, M5076, 72 h, cytotoxic 2.5 ng/ml, PNU 145156E 0 ng/ml, 72 h, 37° C., read-out: % cell growth ± S.E.): 88 ± 10%
activity at 0.01 µg/mL ([3]; Mus musculus, M5076, 72 h, cytotoxic 10 ng/ml, PNU 145156E 0 ng/ml, 72 h, 37° C., read-out: % cell growth ± S.E.): 28 ± 2%
activity at 0.04 µg/mL ([3]; Mus musculus, M5076, 72 h, cytotoxic 40 ng/ml, PNU 145156E 0 ng/ml, 72 h, 37° C., read-out: % cell growth ± S.E.): 7 ± 2%
% cell growth ± S.E. ([3]; cytotoxic 2.5 ng/ml + PNU 145156E 50000 ng/ml, 72 h, 37° C.): 76 ± 6%
% cell growth ± S.E. ([3]; cytotoxic 10 ng/ml + PNU 145156E 50000 ng/ml, 72 h, 37° C.): 29 ± 9%
% cell growth ± S.E. [3, 4]: 8 ± 3%
antiproliferative activity in the presence of PNU 145156E [3]: unchanged in the presence of PNU 145156E

N.N.[Cl][Pt][Cl] [CIS, cisplatin]
T/C % (median increase in survival time) ([2]; CIS 6 mg/kg iv): 130%
Tumor weight ([2]; CIS 6 mg/kg iv): 1.1 ± 0.1 gr
A.U.C. % inhib. (inhibition of tumor growth) ([2]; CIS 6 mg/kg iv): 75%
TGD (tumor growth delay) ([2]; CIS 6 mg/kg iv): 11 days
% cell growth ± S.E. ([3]; cytotoxic 8 ng/ml + PNU 145156E 50000 ng/ml, 72 h, 37° C.): 83 ± 7%
% cell growth ± S.E. ([3]; cytotoxic 8 ng/ml, PNU 145156E 0 ng/ml, 72 h, 37° C.): 91 ± 3%
% cell growth ± S.E. [3, 4]: 46 ± 3%
% cell growth ± S.E. ([3]; cytotoxic 40 ng/ml, PNU 145156E 0 ng/ml, 72 h, 37° C.): 52 ± 7%
% cell growth ± S.E. ([3]; cytotoxic 200 ng/ml + PNU 145156E 50000 ng/ml, 72 h, 37° C.): 4 ± 1%
% cell growth ± S.E. ([3]; cytotoxic 200 ng/ml, PNU 145156E 0 ng/ml, 72 h, 37° C.): 9 ± 5%
antiproliferative activity in the presence of PNU 145156E [3]: unchanged in the presence of PNU 145156E

CCc1c2c(nc3ccc(OC(=O)N4CCC(N5CCCCC5)CC4)cc13)-c1cc3c(c(=O)n1C2)COC(=O)[C@]3(O)CC [CPT-11, irinotecan]
Toxic/total mice ([1]; CPT-11 60 mg/kg iv): 0/8
T/C % (median increase in survival time) ([2]; CPT-11 60 mg/kg iv): 215%
Tumor weight ([2]; CPT-11 60 mg/kg iv): 0.05 ± 0.2 gr
A.U.C. % inhib. (inhibition of tumor growth) ([2]; CPT-11 60 mg/kg iv): 100%
TGD (tumor growth delay) ([2]; CPT-11 60 mg/kg iv): 34 days

CC(=O)O[C@H]1C(=O)[C@@]2(C)[C@H]([C@H](OC(=O)c3ccccc3)[C@]3(O)C[C@H](OC(=O)[C@H](O)[C@@H](NC(=O)c4ccccc4)c4ccccc4)C(C)=C1C3(C)C)[C@]1(OC(C)=O)CO[C@@H]1C[C@@H]2O [PACLITAXEL, paclitaxel]
Toxic/total mice ([1]; TX 33 mg/kg iv): 0/10
Toxic/total mice ([1]; TX 40 mg/kg iv): 0/10
T/C % (median increase in survival time) ([2]; TX 33 mg/kg iv): 108%
Tumor weight ([2]; TX 33 mg/kg iv): 2.34 ± 0.9 gr
A.U.C. % inhib. (inhibition of tumor growth) ([2]; TX 33 mg/kg iv): 77%
TGD (tumor growth delay) ([2]; TX 33 mg/kg iv): 8 days
T/C % (median increase in survival time) ([2]; TX 40 mg/kg iv): 118%
Tumor weight ([2]; TX 40 mg/kg iv): 1.3 ± 0.7 gr
A.U.C. % inhib. (inhibition of tumor growth) ([2]; TX 40 mg/kg iv): 93%
TGD (tumor growth delay) ([2]; TX 40 mg/kg iv): 9 days
activity at 0.00625 µg/mL ([3]; Mus musculus, M5076, cytotoxic 6.25 ng/ml, PNU 145156E 0 ng/ml, 72 h, 37° C., read-out: % cell growth ± S.E.): 89 ± 1%
activity at 0.025 µg/mL ([3]; Mus musculus, M5076, cytotoxic 25 ng/ml, PNU 145156E 0 ng/ml, 72 h, 37° C., read-out: % cell growth ± S.E.): 50 ± 7%
activity at 0.1 µg/mL ([3]; Mus musculus, M5076, cytotoxic 100 ng/ml, PNU 145156E 0 ng/ml, 72 h, 37° C., read-out: % cell growth ± S.E.): 1 ± 1%
% cell growth ± S.E. ([3]; cytotoxic 6.25 ng/ml + PNU 145156E 50000 ng/ml, 72 h, 37° C.): 87 ± 14%
% cell growth ± S.E. ([3]; cytotoxic 25 ng/ml + PNU 145156E 50000 ng/ml, 72 h, 37° C.): 43 ± 1%
% cell growth ± S.E. ([3]; cytotoxic 100 ng/ml + PNU 145156E 50000 ng/ml, 72 h, 37° C.): 2 ± 0%
antiproliferative activity in the presence of PNU 145156E [3]: unchanged in the presence of PNU 145156E

CCc1c2c(nc3ccc(O)cc13)-c1cc3c(c(=O)n1C2)COC(=O)[C@]3(O)CC [SN-38]
activity at 0.0065 µg/mL ([3]; Mus musculus, M5076, 72 h, cytotoxic 6.5 ng/ml, PNU 145156E 0 ng/ml, 72 h, 37° C., read-out: % cell growth ± S.E.): 75 ± 5%
activity at 0.0125 µg/mL ([3]; Mus musculus, M5076, 72 h, cytotoxic 12.5 ng/ml, PNU 145156E 0 ng/ml, 72 h, 37° C., read-out: % cell growth ± S.E.): 19 ± 2%
activity at 0.035 µg/mL ([3]; Mus musculus, M5076, 72 h, cytotoxic 35 ng/ml, PNU 145156E 0 ng/ml, 72 h, 37° C., read-out: % cell growth ± S.E.): 5 ± 1%
% cell growth ± S.E. ([3]; cytotoxic 6.5 ng/ml + PNU 145156E 50000 ng/ml, 72 h, 37° C.): 74 ± 7%
% cell growth ± S.E. ([3]; cytotoxic 12.5 ng/ml + PNU 145156E 50000 ng/ml, 72 h, 37° C.): 25 ± 7%
antiproliferative activity in the presence of PNU 145156E [3]: unchanged in the presence of PNU 145156E
